Assay results from ChEMBL document CHEMBL1201862, “PubChem BioAssay data set” (2004).
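Test compounds were applied to cells in 96-well plates for 48 hours at 5 doses. Abbreviation: GI50, concentration required for 50% inhibition of growth.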 Activity calls are given as the source filed them. No stated cut-off is given here; in the data, active = GI50 up to about 1.1 µM and inactive = higher.

Columns and labels:
Assay in all cases: growth of human tumour cells (NCI), 48 h
[1] = test system: MCF7
[2] = test system: A498
[3] = test system: T47D
[4] = test system: TK-10
[5] = test system: M14
[6] = test system: NCI/ADR-RES
[7] = test system: SK-MEL-5
[8] = test system: HL-60
[9] = test system: Hs-578T
[10] = test system: SF-295
[11] = test system: HCT-15
[12] = test system: CAKI-1
[13] = test system: 786-0
[14] = test system: PC-3
[15] = test system: RXF 393
[16] = test system: HCT-116
[17] = test system: SNB-75
[18] = test system: SW-620
[19] = test system: LOX IMVI

Compound | GI50 [1] | GI50 [2] | GI50 [3] | GI50 [4] | GI50 [5] | GI50 [6] | GI50 [7] | GI50 [8] | GI50 [9] | GI50 [10] | GI50 [11] [µM] | GI50 [12] | GI50 [13] | GI50 [14] | GI50 [15] | GI50 [16] | GI50 [17] | GI50 [18] | GI50 [19]
O=c1[nH]cc(/N=C/c2cc(Cl)ccc2O)c(=O)[nH]1 | 17.7 µM (inactive) | > 100 µM (inactive) | 14.8 µM (inactive) | > 100 µM (inactive) | 13.8 µM (inactive) | 13.1 µM (inactive) | 20.1 µM (inactive) | 4.71 µM (inactive) | 47.2 µM (inactive) | 14.1 µM (inactive) | 2.22 | 30.3 µM (inactive) | 22 µM (inactive) | 8.83 µM (inactive) | 81.7 µM (inactive) | 9.02 µM (inactive) | – | – | –
CC(=O)OC1C2CCC1C1C2N=NN1c1ccc([N+](=O)[O-])cc1 (configuration not stated) | > 100 µM (inactive) | > 100 µM (inactive) | > 100 µM (inactive) | > 100 µM (inactive) | > 100 µM (inactive) | > 100 µM (inactive) | > 100 µM (inactive) | > 100 µM (inactive) | > 100 µM (inactive) | > 100 µM (inactive) | > 100 | – | > 100 µM (inactive) | > 100 µM (inactive) | – | > 100 µM (inactive) | > 100 µM (inactive) | > 100 µM (inactive) | > 100 µM (inactive)
O=C(O)Cn1cc([N+](=O)[O-])c(=O)c2ccccc21 | > 100 µM (inactive) | > 100 µM (inactive) | 18.8 µM (inactive) | > 100 µM (inactive) | > 100 µM (inactive) | > 100 µM (inactive) | > 100 µM (inactive) | > 100 µM (inactive) | > 100 µM (inactive) | > 100 µM (inactive) | > 100 | > 100 µM (inactive) | > 100 µM (inactive) | > 100 µM (inactive) | – | > 100 µM (inactive) | > 100 µM (inactive) | > 100 µM (inactive) | –
COC(=NCCC1=CCCCC1)OC | 47.6 µM (inactive) | > 100 µM (inactive) | 32.9 µM (inactive) | > 100 µM (inactive) | 21.1 µM (inactive) | 58.9 µM (inactive) | 34.4 µM (inactive) | – | > 100 µM (inactive) | > 100 µM (inactive) | 82 | > 100 µM (inactive) | 81.3 µM (inactive) | 85.7 µM (inactive) | > 100 µM (inactive) | 32.8 µM (inactive) | 71.6 µM (inactive) | 62.8 µM (inactive) | –
COC(=O)[C@H](Cc1ccccc1)NC(=O)NCCN(CCNC(=O)N[C@@H](Cc1ccccc1)C(=O)OC)C(=O)N[C@@H](Cc1ccccc1)C(=O)OC | 26 µM (inactive) | 32.9 µM (inactive) | 22.6 µM (inactive) | 20.1 µM (inactive) | 25.6 µM (inactive) | > 100 µM (inactive) | 20.7 µM (inactive) | – | 23.8 µM (inactive) | 18.9 µM (inactive) | > 50.1 | > 45.8 µM (inactive) | 19.5 µM (inactive) | 22.3 µM (inactive) | 16.9 µM (inactive) | 20.3 µM (inactive) | 20.7 µM (inactive) | 22.8 µM (inactive) | 38.4 µM (inactive)
N#Cc1ccc(Nc2nc3[nH]cnc3c(=O)[nH]2)cc1 | > 100 µM (inactive) | > 100 µM (inactive) | > 100 µM (inactive) | > 100 µM (inactive) | > 100 µM (inactive) | > 100 µM (inactive) | > 100 µM (inactive) | > 100 µM (inactive) | > 100 µM (inactive) | > 100 µM (inactive) | > 100 | > 100 µM (inactive) | > 100 µM (inactive) | > 100 µM (inactive) | – | > 100 µM (inactive) | > 100 µM (inactive) | > 100 µM (inactive) | > 100 µM (inactive)
CCSc1c(C)c2c(n(Cc3ccc(OC)cc3)c1=O)Cc1ccccc1C2 | 24.7 µM (inactive) | – | 30.5 µM (inactive) | 27.2 µM (inactive) | 10.9 µM (inactive) | 5.08 µM (inactive) | 15.4 µM (inactive) | 6.17 µM (inactive) | 24.5 µM (inactive) | 32.1 µM (inactive) | 4.52 | 44 µM (inactive) | 11 µM (inactive) | 15.3 µM (inactive) | 32.1 µM (inactive) | 11.2 µM (inactive) | 21.9 µM (inactive) | 15.5 µM (inactive) | 11.9 µM (inactive)
CCC1(c2ccc(N3C(=O)c4cccc5cc([N+](=O)[O-])cc(c45)C3=O)cc2)CCC(=O)NC1=O (configuration not stated) | 29.9 µM (inactive) | 10.1 µM (inactive) | 24.4 µM (inactive) | 33 µM (inactive) | 61.5 µM (inactive) | 17 µM (inactive) | 90.4 µM (inactive) | – | 16.1 µM (inactive) | 15.9 µM (inactive) | 31 | 14.2 µM (inactive) | 7.38 µM (inactive) | 20.9 µM (inactive) | 7.14 µM (inactive) | 5.42 µM (inactive) | 7.05 µM (inactive) | 11.4 µM (inactive) | 11.9 µM (inactive)
N#CCCN(CCC#N)c1ccc(C(=N/c2ccc(F)cc2)/N=N/c2ccc(Cl)cc2)cc1 | > 100 µM (inactive) | > 100 µM (inactive) | > 100 µM (inactive) | > 100 µM (inactive) | > 100 µM (inactive) | > 100 µM (inactive) | > 100 µM (inactive) | – | > 100 µM (inactive) | > 100 µM (inactive) | > 100 | > 100 µM (inactive) | > 100 µM (inactive) | > 100 µM (inactive) | > 100 µM (inactive) | > 100 µM (inactive) | > 100 µM (inactive) | > 100 µM (inactive) | –
Clc1ccc(C(c2ccc(Cl)cc2)c2cncnc2)cc1 | 15.3 µM (inactive) | – | 16.6 µM (inactive) | 16.9 µM (inactive) | 16.4 µM (inactive) | 18.7 µM (inactive) | 13.2 µM (inactive) | 22.9 µM (inactive) | 18.3 µM (inactive) | 17.9 µM (inactive) | 19.6 | 18.6 µM (inactive) | 17.3 µM (inactive) | 14.2 µM (inactive) | 12.6 µM (inactive) | 13.9 µM (inactive) | – | – | 15.8 µM (inactive)
O=C1c2ccccc2NC(=S)[C@@H]2CCCN12 | > 100 µM (inactive) | > 100 µM (inactive) | > 100 µM (inactive) | > 100 µM (inactive) | > 100 µM (inactive) | > 100 µM (inactive) | > 100 µM (inactive) | – | > 100 µM (inactive) | > 100 µM (inactive) | > 100 | > 100 µM (inactive) | > 100 µM (inactive) | > 100 µM (inactive) | > 100 µM (inactive) | > 100 µM (inactive) | > 100 µM (inactive) | > 100 µM (inactive) | > 100 µM (inactive)
N#Cc1c(-c2ccc([N+](=O)[O-])cc2)c2c([nH]c1=O)-c1ccccc1CCC2 | 33.4 µM (inactive) | 46.3 µM (inactive) | 21.5 µM (inactive) | > 100 µM (inactive) | > 100 µM (inactive) | 50.5 µM (inactive) | 51.9 µM (inactive) | 43 µM (inactive) | 75 µM (inactive) | 37.2 µM (inactive) | 31.3 | > 100 µM (inactive) | > 100 µM (inactive) | 80.2 µM (inactive) | 30.9 µM (inactive) | 60.4 µM (inactive) | – | 63.5 µM (inactive) | 56.6 µM (inactive)
O=C(/C=C/c1ccsc1)c1ccc(Cl)s1 | 22.5 µM (inactive) | 34.5 µM (inactive) | > 100 µM (inactive) | > 100 µM (inactive) | > 100 µM (inactive) | > 100 µM (inactive) | > 100 µM (inactive) | 24.8 µM (inactive) | > 100 µM (inactive) | 59.4 µM (inactive) | 43.5 | > 100 µM (inactive) | > 10 µM (inactive) | > 100 µM (inactive) | – | 25.4 µM (inactive) | > 100 µM (inactive) | 24.7 µM (inactive) | 19.4 µM (inactive)
O=C1C=CC(=O)N1n1c(-c2ccccc2)n[nH]c1=O | > 100 µM (inactive) | > 100 µM (inactive) | > 100 µM (inactive) | > 100 µM (inactive) | > 100 µM (inactive) | > 100 µM (inactive) | > 100 µM (inactive) | > 100 µM (inactive) | > 100 µM (inactive) | > 100 µM (inactive) | > 100 | > 100 µM (inactive) | > 100 µM (inactive) | > 100 µM (inactive) | > 100 µM (inactive) | > 100 µM (inactive) | – | – | –
COc1ccc(-n2cnc3c(NC(CCSC)C(=O)O)ncnc32)cc1 (configuration not stated) | > 100 µM (inactive) | > 100 µM (inactive) | > 100 µM (inactive) | > 100 µM (inactive) | > 100 µM (inactive) | > 100 µM (inactive) | > 100 µM (inactive) | – | > 100 µM (inactive) | > 100 µM (inactive) | > 100 | > 100 µM (inactive) | > 100 µM (inactive) | > 100 µM (inactive) | – | > 100 µM (inactive) | > 100 µM (inactive) | > 100 µM (inactive) | > 100 µM (inactive)
Cc1ccc(-c2n[nH]c(=O)n2NC(=O)c2ccccc2C(=O)O)cc1 | > 100 µM (inactive) | – | 72.8 µM (inactive) | > 100 µM (inactive) | > 100 µM (inactive) | > 100 µM (inactive) | > 100 µM (inactive) | > 100 µM (inactive) | > 100 µM (inactive) | > 100 µM (inactive) | > 100 | > 100 µM (inactive) | > 100 µM (inactive) | > 100 µM (inactive) | > 100 µM (inactive) | > 100 µM (inactive) | > 100 µM (inactive) | > 100 µM (inactive) | > 100 µM (inactive)
